In patent US7906522B2, “2-aminoquinazoline derivatives” (Kyowa Hakko Kirin Co., Ltd, priority 2005, dated 2011) one finds inhibition data, which are given here for 29 compounds.

This experiment deals with T1, Activated human p38α (Homo sapiens, UniProt Q16539).
T1 construct: purchased Upstate Biotechnology Inc. 14-251
T1 sequence (Q16539 whole entry): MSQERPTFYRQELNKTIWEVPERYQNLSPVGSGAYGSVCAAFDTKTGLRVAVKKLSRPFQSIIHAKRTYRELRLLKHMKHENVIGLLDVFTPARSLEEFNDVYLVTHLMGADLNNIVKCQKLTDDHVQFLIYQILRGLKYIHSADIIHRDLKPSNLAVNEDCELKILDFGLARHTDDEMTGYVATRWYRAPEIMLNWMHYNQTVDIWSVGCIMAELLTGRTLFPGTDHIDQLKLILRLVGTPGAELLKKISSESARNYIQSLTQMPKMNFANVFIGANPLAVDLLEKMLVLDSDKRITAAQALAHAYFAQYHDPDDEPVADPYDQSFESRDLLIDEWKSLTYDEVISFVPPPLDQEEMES
Put plainly: p38MAP kinase inhibition test. Format: biochemical. The conditions noted are these: at a concentration of 1 μmol/L; substrate myelin basic protein, ATP 20 μmol/L, [γ-32P]ATP; read-out: enzyme inhibitory activity. Here is the method:
p38MAP Kinase Inhibition Test
Activated human p38α was purchased from Upstate Biotechnology Inc. (Catalog No. 14-251). P38MAP kinase inhibitory activity was measured by the procedure described below with reference to the method by Whitmarsh A. J. and Davis R. J. [Methods in Enzymology (Method. Enzymol.), vol. 332, p. 319-336 (2001)]. As the substrate to be phosphorylated, a myelin basic protein (Catalog No. 133-13493, Wako Pure Chemical Industries, Ltd.) (20 μg/assay) was used. The reaction was carried out in a solution containing 3-[N-Morpholino]propanesulfonic acid (MOPS) (20 mmol/L, pH 7.2), β-glycerophosphoric acid (Sigma Corp.) (25 mmol/L), ethylenebis(oxyethylenenitrilo)tetraacetic acid (EGTA) (1 mmol/L), […] (Sigma-Aldrich Corp.) (1 mmol/L), dithiothreitol (DTT, Wako Pure Chemical Industries, Ltd.) (1 mmol/L), adenosine 5′-triphosphate (ATP, Sigma Corp.) (20 μmol/L), and MgCl2 (18.75 mmol/L) (total 40 μL/assay). The reaction was started by adding human p38α and [γ-^32P]ATP (1 μCi/assay), and incubation was performed at 30° C. for 15 minutes. The reaction was terminated by adding 4.5% v/v phosphoric acid (10 μL/well). Then, 45 μL of the reaction mixture was adsorbed onto phosphocellulose paper (p81 paper, Code No. 3698023, Whatman International, Maidstone, UK). The phosphocellulose paper was washed with 0.75% v/v phosphoric acid. Then, the radioactivity of the phosphorylated myelin basic protein ([^32P]) remaining on the phosphocellulose paper was measured with a scintillation counter (TRI-CARB2700TR, PerkinElmer, Boston, Mass., USA) using program No. 27 (data mode: cpm, measurement time: 1 min, Background substract: none, energy range measured: LL 0.0-UL 2000) or a scintillation counter (LS6500, BeckmanCoulter, Fullerton, Calif., USA) using program No. 17 (data mode: cpm, measurement time: 1 min, Background substract: none, energy range measured: high). The test compound was dissolved in DMSO before addition.
In the case of `CC(C)Nc1ncc2cc(-c3cccc(NC(=O)C(C)(C)C)c3)c(O)cc2n1` [Compound 298, 6-[3-(tert-Butylcarbonylamino)phenyl]-7-hydroxy-2-(isopropylamino)quinazoline], the inhibition at 1 µM is at least 50%.
As for `COc1cccc(-c2cc3cnc(NC(C)C)nc3cc2OC)c1` [Compound 201, 2-Isopropylamino-7-methoxy-6-(3-methoxyphenyl)quinazoline], the figure is at least 50%; as for `COc1cc2nc(NC(C)C)ncc2cc1-c1cccc(NC(=O)c2cc3ccccc3[nH]2)c1` [Compound 211, 6-{3-[(1H-indol-2-yl)carbonylamino]phenyl}-2-isopropylamino-7-methoxyquinazoline], at least 50%.
Next, `COc1cc2nc(NC(C)C)ncc2cc1-c1ccccc1O` [Compound 186, 6-(2-Hydroxyphenyl)-2-isopropylamino-7-methoxyquinazoline]: at least 50%.
Next, `Cc1cccc(C)c1Nc1ncc2cc(-c3cccc(NC(=O)c4cccc(N(C)C)c4)c3)c(O)cc2n1` [Compound 314, 6-{3-[(3-Dimethylaminophenyl)carbonylamino]phenyl}-2-(2,6-dimethylanilino)-7-hydroxyquinazoline]: at least 50%; `COc1cc2nc(N)ncc2cc1-c1cc(NC(C)=O)ccc1C` [Compound 249, 6-(5-Acetylamino-2-methylphenyl)-2-amino-7-methoxyquinazoline]: at least 50%.
In the case of `COc1cc2nc(NC(C)C)ncc2cc1-c1cc(N)ccc1CO` [Compound 224, 6-[5-Amino-2-(hydroxymethyl)phenyl]-2-isopropylamino-7-methoxyquinazoline], the inhibition at 1 µM was at least 50%.
As for `Cc1cc2nc(NC(C)C)ncc2cc1-c1cccc(NC(=O)c2ccc[nH]2)c1` [Compound 278, 2-Isopropylamino-7-methyl-6-{3-[(1H-pyrrol-2-yl)carbonylamino]phenyl}quinazoline], the figure is at least 50%; as for `CC(C)Nc1ncc2cc(-c3cccc(NC(=O)C4(C)CC4)c3)c(O)cc2n1` [Compound 299, 7-Hydroxy-2-isopropylamino-6-{3-[(1-methylcyclopropyl)carbonylamino]phenyl}quinazoline], at least 50%.
In the case of `COc1cc2nc(NC(C)C)ncc2cc1-c1cc(NC(=O)c2ccc[nH]2)ccc1CO` [Compound 228, 6-{2-Hydroxymethyl-5-[(1H-pyrrol-2-yl)carbonylamino]phenyl}-2-isopropylamino-7-methoxyquinazoline], the inhibition at 1 µM is at least 50%.
With `CC(C)Nc1ncc2cc(-c3ccccc3Cl)c(O)cc2n1` [Compound 19, 6-(2-Chlorophenyl)-7-hydroxy-2-isopropylaminoquinazoline], the inhibition at 1 µM was at least 50%.
As to `CC[C@H](C)Nc1ncc2cc(-c3ccccc3Cl)c(OC)cc2n1` [Compound 155, (S)-2-(sec-Butylamino)-6-(2-chlorophenyl)-7-methoxyquinazoline], the inhibition at 1 µM is at least 50%.
Next, `CC(=O)Nc1ccc(C)c(-c2ccc3nc(NC(C)C)ncc3c2)c1` [Compound 254, 6-(5-Acetylamino-2-methylphenyl)-2-(isopropylamino)quinazoline]: at least 50%; `COc1cc2nc(NC3CCN(C(N)=O)CC3)ncc2cc1-c1ccccc1Cl` [Compound 15, 2-(1-Carbamoylpiperidin-4-ylamino)-6-(2-chlorophenyl)-7-methoxyquinazoline]: at least 50%.
With `CON(C)C(=O)c1c(O)c(-c2ccccc2Cl)cc2cnc(NC(C)C)nc12` [Compound 72, 6-(2-Chlorophenyl)-7-hydroxy-2-isopropylamino-8-(N-methoxy-N-methylaminocarbonyl)quinazoline], the inhibition at 1 µM is at least 50%.
Turning to `CC(=O)Nc1cccc(-c2ccc3nc(NC4CCN(S(C)(=O)=O)CC4)ncc3c2)c1` [Compound 274, 6-[3-(Acetylamino)phenyl]-2-[1-(methylsulfonyl)piperidin-4-ylamino]quinazoline], the inhibition at 1 µM is at least 50%.
As for `COc1cc2nc(NC3CCN(S(C)(=O)=O)CC3)ncc2cc1-c1cccc(NC(C)=O)c1` [Compound 238, 6-(3-Acetylaminophenyl)-7-methoxy-2-[1-(methylsulfonyl)piperidin-4-ylamino]quinazoline], the figure is at least 50%; as for `CC(=O)Nc1cccc(-c2cc3cnc(NC(C)C)nc3cc2O)c1` [Compound 287, 6-[3-(Acetylamino)phenyl]-7-hydroxy-2-(isopropylamino)quinazoline], at least 50%.
As for `CC(C)Nc1ncc2cc(C(=O)c3ccccc3Cl)c(O)cc2n1` [Compound 125, 6-(2-Chlorobenzoyl)-7-hydroxy-2-(isopropylamino)quinazoline], the figure is at least 50%.
Next, `CC[C@H](C)Nc1ncc2cc(C(=O)c3cccc(C)c3)c(O)cc2n1` [Compound 135, (S)-2-(sec-Butylamino)-7-hydroxy-6-(3-methylbenzoyl)quinazoline]: at least 50%; `COc1c(-c2ccccc2Cl)cc2cnc(NC(C)C)nc2c1/C=C/C(=O)O` [Compound 74, 8-[(E)-2-carboxyethenyl]-6-(2-chlorophenyl)-7-methoxy-2-(isopropylamino)quinazoline]: at least 50%.
As for `COc1cc2nc(NC(C)C)ncc2cc1-c1cc(NC(C)=O)ccc1C#N` [Compound 227, 6-(5-Acetylamino-2-cyanophenyl)-2-isopropylamino-7-methoxyquinazoline], the inhibition at 1 µM is at least 50%.
As for `CC(C)Nc1ncc2cc(-c3ccccc3Cl)c(O)c(-c3ccccc3F)c2n1` [Compound 100, 6-(2-Chlorophenyl)-8-(2-fluorophenyl)-7-hydroxy-2-(isopropylamino)quinazoline], the figure is at least 50%; as for `CCC(=O)Nc1cccc(-c2cc3cnc(NC(C)C)nc3cc2O)c1` [Compound 297, 7-Hydroxy-2-isopropylamino-6-[3-(propionylamino)phenyl]quinazoline], at least 50%; as for `COc1cc2nc(NC(C)C)ncc2cc1-c1ccc(F)cc1C` [Compound 206, 6-(4-Fluoro-2-methylphenyl)-2-isopropylamino-7-methoxyquinazoline], at least 50%.
Consider `COc1cc2nc(NC(C)C)ncc2cc1-c1cccc(NC(=O)c2ccnc(N3CCOCC3)c2)c1` [Compound 53, 2-Isopropylamino-7-methoxy-6-{3-[(2-morpholinopyridin-4-yl)carbonylamino]phenyl}quinazoline], for which the inhibition at 1 µM is at least 50%.
For `COc1cc2nc(NC3CCN(S(C)(=O)=O)C3)ncc2cc1-c1ccccc1Cl` (centres unmarked) [Compound 145, 6-(2-Chlorophenyl)-7-methoxy-2-[1-(methylsulfonyl)pyrrolidin-3-ylamino]quinazoline], the inhibition at 1 µM was at least 50%.
On to `CC(C)Nc1ncc2cc(-c3cccc(NC(=O)c4ccc[nH]4)c3)c(O)cc2n1` [Compound 292, 7-Hydroxy-2-isopropylamino-6-{3-[(1H-pyrrol-2-yl)carbonylamino]phenyl}quinazoline], for which the inhibition at 1 µM is at least 50%.
As for `COc1cc2nc(NC3CCCC3)ncc2cc1-c1ccccc1Cl` [Compound 6, 6-(2-Chlorophenyl)-2-(cyclopentylamino)-7-methoxyquinazoline], the figure is at least 50%.
